Test results as given in PMC5360941, “Simultaneous Determination and Pharmacokinetic Study of Quercetin, Luteolin, and Apigenin in Rat Plasma after Oral Administration of Matricaria chamomilla L. Extract by HPLC-UV” (Evidence-based Complementary and Alternative Medicine : eCAM, 2017).

Experiments:
[1] = Pharmacokinetic study in rats after oral administration of M. chamomilla extract (HPLC-UV of plasma); assay type: in vivo, Male Sprague-Dawley rats; details: oral M. chamomilla extract (quercetin 8.51 mg/kg, luteolin 56.49 mg/kg, apigenin 13.82 mg/kg), mean ± SD; for AUC(0-inf) / AUC(0-t) / Cmax / Tmax / half-life: male, Sprague-Dawley, rat; for AUC(0-inf) / T1/2, elimination half-life: n = 6; for AUC(0-t): n = 6, read-out: AUC0–12; for Cmax: n = 6, read-out: Cmax, maximum plasma concentration; for Tmax: noncompartmental, n = 6, read-out: Tmax, time to reach the maximum plasma concentration; for half-life: po, n = 6, read-out: T1/2, elimination half-life (converted)
Procedure: All analyses were performed on a Shimadzu HPLC system, equipped with LC-20AT pump, a Shimadzu SCL-10A system controller, and a SPD-20A DAD-UV detector. The HPLC analysis was performed on an Agilent Eclipse XDB-C18 column (250 mm × 4.6 mm, 5 μm) with a mobile phase consisting of methanol and 0.2% phosphoric acid (50 : 50, v/v) with a constant rate of 1.0 ml/min. The injection volume was 10 μl and the column temperature was set at 25°C. The wavelength was set at 350 nm for quantitative analysis; the proportion of components in the mobile phase was optimized to obtain a well separation of quercetin, luteolin, apigenin, and kaempferol (IS).
An aliquot of 100 μL rat plasma was transferred to a 1.5 mL plastic tube to which was added 10 μL IS (22.52 μg/ml) for processing. After being vortex-mixed for 30 seconds, the plasma sample was then extracted with 800 μl of ethyl acetate and centrifuged at 18000g for 10 min, where ethyl acetate acted as a deproteinization-extraction agent. The procedure of extraction was performed two times. The organic layer was dried at 40°C under nitrogen stream. The residue was reconstituted in 100 μL of methanol solution, vortexed for 1 min, and centrifuged at 18000g for 10 min. The supernatant transferred to a glass insert, and 10 μL of the sample was injected into the HPLC column for analysis. The method of sample preparation was also applied for determination of accuracy, precision, and recovery.
Male Sprague-Dawley rats (body weight 160 ± 20 g) were purchased from Beijing Vital River Laboratory Animal Technology (Beijing, China). Rats were housed in a temperature- and humidity-controlled environment (25°C, 65% RH) and maintained on a 12-hour light/dark cycle for 3 days with free access to food and water before starting the experiment. The animal experiments were performed in accordance with the principles of the International Guide for the Care and Use of Laboratory Animals and were approved by the Committee on Animal Care and Usage of the Beijing University of Chinese Medicine (number SYXK 2011-0024).
The extracts of M. chamomilla (quercetin was 8.51 mg/kg, luteolin was 56.49 mg/kg, and apigenin was 13.82 mg/kg) freshly prepared in 0.5% CMC-Na solution were orally administered to six rats. Blood samples (0.5 mL) were collected from the ocular fundus veins of rats before administration and after 10, 20, 30, and 45 min and 1, 1.5, 2, 4, 6, 8, and 12 h after oral administration of M. chamomilla extract. The plasma was immediately centrifuged at 3200g for 10 min to separate out plasma and then stored frozen at −20°C until analysis.
The pharmacokinetic parameters of quercetin, luteolin, and apigenin were calculated by Kinetica 4.4 software (Thermo Scientific, USA). Noncompartmental analysis was used to determine standard pharmacokinetic parameters of analytes. All the results were expressed as means ± standard deviation (SD) of six replicates.

[2] = Stability of the analytes in rat plasma (QC samples under different storage conditions); assay type: in vitro ADME; details: for Stability in plasma (in words): plasma stored at 20°C for 24 h, −20°C for 30 days, and after three freeze-thaw cycles, low, medium, high concentrations, stable = 85–115% of initial; for Freeze-thaw stability, found conc. / Short-term stability, found conc. / Long-term stability, found conc.: rat plasma, n = 6; for Freeze-thaw stability, found conc.: 3 freeze-thaw cycles; for Short-term stability, found conc.: 24 h at room temperature; for Long-term stability, found conc.: 30 days at −20°C
Procedure: QC samples were prepared in the same way as the calibration samples, representing three different level concentrations (low, medium, and high) of quercetin in plasma at 0.57, 2.84, and 9.09 μg/ml, luteolin at 0.56, 2.80, and 8.96 μg/ml, and apigenin at 0.53, 2.65, and 8.48 μg/ml, respectively. The stability of the analytes in plasma was investigated by determining QC plasma samples of the three concentration levels under different storage conditions: 24 h at room temperature, three freeze (−20°C) and thaw (room temperature) cycles, stored at −20°C for 30 days. They were considered stable when 85–115% of the initial concentrations were got. All stability testing QC samples were determined by using the calibration curve of freshly prepared standard samples.

[3] = high QC (spiked 9.09 quercetin, 8.96 luteolin, 8.48 apigenin μg/ml)
[4] = low QC (spiked 0.57 quercetin, 0.56 luteolin, 0.53 apigenin μg/ml)
[5] = medium QC (spiked 2.84 quercetin, 2.80 luteolin, 2.65 apigenin μg/ml)

SMILES | AUC(0-inf) [1] [ng·h/mL] | AUC(0-t) [1] [ng·h/mL] | Cmax [1] [ng/mL] | Tmax [1] [h] | half-life [1] [h] | T1/2, elimination half-life [1] [h] | Stability in plasma (in words) [2] | Freeze-thaw stability, found conc. [2, 3] [µg/mL] | Freeze-thaw stability, found conc. [2, 4] [µg/mL] | Freeze-thaw stability, found conc. [2, 5] [µg/mL] | Short-term stability, found conc. [2, 3] [µg/mL] | Short-term stability, found conc. [2, 4] [µg/mL] | Short-term stability, found conc. [2, 5] [µg/mL] | Long-term stability, found conc. [2, 3] [µg/mL] | Long-term stability, found conc. [2, 4] [µg/mL] | Long-term stability, found conc. [2, 5] [µg/mL]
O=c1cc(-c2ccc(O)cc2)oc2cc(O)cc(O)c12 [Apigenin, apigenin] | 5030 ± 1720 | 2910 ± 740 | 420 ± 110 | ~0.51 | ~8.82 | 8.82 ± 4.15 | stable | 7.87 ± 0.50 | 0.48 ± 0.02 | 2.60 ± 0.14 | 8.31 ± 0.72 | 0.50 ± 0.04 | 2.64 ± 0.16 | 8.27 ± 0.62 | 0.46 ± 0.04 | 2.61 ± 0.13
O=c1c(O)c(-c2ccc(O)c(O)c2)oc2cc(O)cc(O)c12 [Quercetin, quercetin] | 3880 ± 1000 | 1790 ± 290 | 290 ± 60 | ~0.79 | ~13.6 |  | stable | 9.24 ± 0.55 | 0.63 ± 0.01 | 3.09 ± 0.09 | 9.15 ± 0.69 | 0.63 ± 0.01 | 3.09 ± 0.18 | 9.59 ± 0.53 | 0.62 ± 0.03 | 3.10 ± 0.16
O=c1cc(-c2ccc(O)c(O)c2)oc2cc(O)cc(O)c12 [Luteolin, luteolin] | 19900 ± 5060 | 16000 ± 2380 | 3040 ± 600 | ~0.42 | ~4.43 | 4.43 ± 1.84 | stable | 8.56 ± 0.54 | 0.62 ± 0.02 | 2.91 ± 0.15 | 8.96 ± 0.76 | 0.62 ± 0.01 | 2.94 ± 0.14 | 8.99 ± 0.65 | 0.61 ± 0.03 | 2.92 ± 0.15
